One data set has as its system cancer cells. Particulars: apparently by amino acid transport system uptake; cited from earlier work.
The conditions of data set [1]: pH 7.4; background statement; cited from earlier work.

≈ marks a conversion by molar mass, not a printed value.

Procedure for physchem: For solubility determinations, an excess of BPA was always used. All formulations were sonicated (ultrasonic wave treatment), adjusted to a final pH of 7.4, and filtered through a 0.22 micron filter. The BPA concentration of filtered solutions was calculated from B levels which were measured by inductively coupled plasma atomic emission spectrometry. […] Unless otherwise specified, BPA and B levels are reported as mean±standard error of the mean (SEM) of three experiments.

As for `NC(Cc1ccc(B(O)O)cc1)C(=O)O` (stereo not shown) [BPA, P-boronophenylalanine], the “selective accumulation in cancer cells” value with cancer cells is on record as “does seem to selectively accumulate in cancer cells”. Moreover, the solubility in the data set “physchem” (buffer, pH 7.4, aqueous buffer) is 2200 ± 400 µg/mL (≈ 10.5 mM); in the data set “physchem” (water, pH 7.4, water) it was 1150 to 3700 µg/mL (≈ 5.5 to 17.7 mM). Further, the “water solubility at physiological pH” value in data set [1] is on record as less than 4 ppm.

For orientation: solubility means the concentration that dissolves in the medium under given conditions. The low end stands for a poorly soluble substance, the high end for a readily soluble substance.

The values above are taken from patent US5935944A, “Formulation for I.V. administration of the boron delivery drug, boronophenylalanine (BPA)” (Neutron Technology Corporation, priority 1996, dated 1999).
